Measured values published in paper PMC10582325 (Frontiers in Pharmacology, 2023).
“And” between values parts separate entries of the source, which are not always exact repeats. Equal entries are not always repeated. Where two headings read alike, the source gives them in different places.

Key:
[1] = male, BALB/c, mouse, in vivo
rCYP3A5 = target: T1, rCYP3A5 (Homo sapiens, UniProt P20815); assay: Reaction phenotyping of BDQ in recombinant P450 enzymes (rCYPs method); format: in vitro ADME; conditions: BDQ 1 μM, CYP3A5
T1 construct: purchased BD Gentest (Woburn, MA, United States)
T1 sequence (P20815 whole entry): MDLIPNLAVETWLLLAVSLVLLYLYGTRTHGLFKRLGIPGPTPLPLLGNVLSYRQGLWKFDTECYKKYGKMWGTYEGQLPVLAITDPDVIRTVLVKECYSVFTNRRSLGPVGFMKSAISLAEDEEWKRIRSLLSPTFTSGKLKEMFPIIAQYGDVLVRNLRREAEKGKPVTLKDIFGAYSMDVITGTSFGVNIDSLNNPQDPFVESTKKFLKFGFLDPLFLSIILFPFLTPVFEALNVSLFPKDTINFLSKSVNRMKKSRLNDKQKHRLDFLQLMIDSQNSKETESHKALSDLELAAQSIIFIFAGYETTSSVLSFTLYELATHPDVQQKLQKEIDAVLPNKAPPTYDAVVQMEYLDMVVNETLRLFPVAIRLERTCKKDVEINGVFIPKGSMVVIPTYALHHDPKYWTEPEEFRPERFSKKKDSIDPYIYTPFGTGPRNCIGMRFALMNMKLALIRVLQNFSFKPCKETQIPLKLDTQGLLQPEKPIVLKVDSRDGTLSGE

[2] = mouse, in vivo
rCYP2C8 = target: T2, rCYP2C8 (Homo sapiens, UniProt P10632); assay: Reaction phenotyping of BDQ in recombinant P450 enzymes (rCYPs method); format: in vitro ADME; conditions: BDQ 1 μM, CYP2C8
T2 construct: purchased BD Gentest (Woburn, MA, United States)
T2 sequence (P10632 1-490): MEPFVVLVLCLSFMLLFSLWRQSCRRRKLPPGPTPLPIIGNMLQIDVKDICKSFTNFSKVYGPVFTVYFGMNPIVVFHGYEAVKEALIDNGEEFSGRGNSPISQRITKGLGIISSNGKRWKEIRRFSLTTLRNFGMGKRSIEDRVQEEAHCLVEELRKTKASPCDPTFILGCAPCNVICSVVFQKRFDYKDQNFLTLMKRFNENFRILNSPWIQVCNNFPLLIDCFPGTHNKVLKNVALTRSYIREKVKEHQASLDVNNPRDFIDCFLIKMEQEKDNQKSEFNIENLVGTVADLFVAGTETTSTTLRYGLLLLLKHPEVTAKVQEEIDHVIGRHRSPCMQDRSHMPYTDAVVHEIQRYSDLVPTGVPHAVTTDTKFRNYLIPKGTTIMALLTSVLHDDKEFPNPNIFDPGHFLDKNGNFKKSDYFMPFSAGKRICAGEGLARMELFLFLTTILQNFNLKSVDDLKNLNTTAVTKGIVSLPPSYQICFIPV

rCYP3A4 = target: T3, rCYP3A4 (Homo sapiens, UniProt P08684); assay: as above; format: in vitro ADME; conditions: BDQ 1 μM, CYP3A4
T3 construct: purchased BD Gentest (Woburn, MA, United States)
T3 sequence (P08684 whole entry): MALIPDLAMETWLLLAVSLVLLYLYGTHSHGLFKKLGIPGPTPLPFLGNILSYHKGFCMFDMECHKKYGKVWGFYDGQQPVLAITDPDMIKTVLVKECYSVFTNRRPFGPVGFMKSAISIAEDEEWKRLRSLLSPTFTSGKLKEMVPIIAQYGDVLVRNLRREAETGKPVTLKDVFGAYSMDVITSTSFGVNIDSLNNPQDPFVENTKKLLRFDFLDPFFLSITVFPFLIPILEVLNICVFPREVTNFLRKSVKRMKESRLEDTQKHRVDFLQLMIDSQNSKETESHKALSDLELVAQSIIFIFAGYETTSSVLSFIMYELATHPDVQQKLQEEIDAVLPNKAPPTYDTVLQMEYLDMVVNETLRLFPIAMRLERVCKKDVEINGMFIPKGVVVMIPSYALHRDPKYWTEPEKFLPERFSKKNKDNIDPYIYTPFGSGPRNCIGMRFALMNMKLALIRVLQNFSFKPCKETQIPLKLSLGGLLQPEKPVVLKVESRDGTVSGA

rCYP2A6 = target: T4, rCYP2A6 (Homo sapiens, UniProt P11509); assay: as above; format: in vitro ADME; conditions: BDQ 1 μM, M2 formation, CYP2A6
T4 construct: purchased BD Gentest (Woburn, MA, United States)
T4 sequence (P11509 1-494): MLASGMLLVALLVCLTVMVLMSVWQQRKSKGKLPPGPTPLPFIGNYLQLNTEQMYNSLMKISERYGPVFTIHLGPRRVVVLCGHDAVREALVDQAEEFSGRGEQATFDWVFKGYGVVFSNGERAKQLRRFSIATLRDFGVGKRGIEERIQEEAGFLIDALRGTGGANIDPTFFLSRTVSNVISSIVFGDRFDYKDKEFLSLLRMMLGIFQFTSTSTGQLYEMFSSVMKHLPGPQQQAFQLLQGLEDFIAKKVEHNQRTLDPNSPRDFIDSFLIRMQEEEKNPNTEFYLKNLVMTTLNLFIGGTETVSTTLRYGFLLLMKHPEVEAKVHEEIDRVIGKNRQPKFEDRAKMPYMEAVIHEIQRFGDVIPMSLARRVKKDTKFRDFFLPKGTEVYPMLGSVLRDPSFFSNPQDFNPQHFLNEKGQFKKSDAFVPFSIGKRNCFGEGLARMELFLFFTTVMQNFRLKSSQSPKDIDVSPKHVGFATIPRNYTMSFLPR

[3] = Plasma concentration 3 h post dose in murine model of tuberculosis; format: in vivo, BALB/c mice infected with M. tuberculosis H37Rv; conditions: TB model; for concentration at 3 h: female, BALB/c, mouse, plasma, read-out: Mean plasma concentration at three hours after oral administration; for plasma concentration after coadministration as percent of BDQ alone: 3 h post dose, p < 0.05
rCYP2C19 = target: T5, rCYP2C19 (Homo sapiens, UniProt P33261); assay: Reaction phenotyping of BDQ in recombinant P450 enzymes (rCYPs method); format: in vitro ADME; conditions: BDQ 1 μM, CYP2C19
T5 construct: purchased BD Gentest (Woburn, MA, United States)
T5 sequence (P33261 whole entry): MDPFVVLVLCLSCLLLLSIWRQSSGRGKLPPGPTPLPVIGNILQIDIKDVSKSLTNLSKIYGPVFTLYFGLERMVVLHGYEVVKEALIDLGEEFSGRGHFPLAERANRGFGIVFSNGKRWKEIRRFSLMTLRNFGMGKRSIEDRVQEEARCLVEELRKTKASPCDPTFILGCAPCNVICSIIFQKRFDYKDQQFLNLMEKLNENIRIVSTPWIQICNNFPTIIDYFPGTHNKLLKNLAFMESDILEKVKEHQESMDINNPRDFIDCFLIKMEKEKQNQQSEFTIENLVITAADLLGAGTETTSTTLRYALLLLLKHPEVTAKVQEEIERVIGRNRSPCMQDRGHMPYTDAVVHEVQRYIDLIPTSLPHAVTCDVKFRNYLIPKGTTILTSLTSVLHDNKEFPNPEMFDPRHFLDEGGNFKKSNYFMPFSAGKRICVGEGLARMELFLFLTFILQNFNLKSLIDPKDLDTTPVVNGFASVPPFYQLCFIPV

in vivo = conditions: male, BALB/c, mouse, tissue-to-plasma ratio (Kp)
CYP3A4/5 = conditions: cited from earlier work
phospholipidosis = conditions: cited from earlier work
[4] = Lung and spleen tissue exposure in BALB/c mice
[5] = Steady-state plasma pharmacokinetics of BDQ, M2 and TBI-166 in BALB/c mice; conditions: for AUC(0-t): Plasma; for t 1/2: after last dose
[6] = Stability of BDQ, M2 and TBI-166 in mice plasma (LC-MS/MS validation)
[7] = TBI-166 group (20 mg/kg), W4, LLOQ 5, 5, 15 ng/mL for BDQ, TBI-166, M2
[8] = TBI-166 group (20 mg/kg), W8, LLOQ 5, 5, 15 ng/mL for BDQ, TBI-166, M2

COc1nc2ccc(Br)cc2cc1[C@@H](c1ccccc1)[C@@](O)(CCN(C)C)c1cccc2ccccc12 [BDQ, Bedaquiline]
AUC(0-last) as percent of single-drug group [1]: 100%
MRT(0-t) ([1]; po, 25 mg/kg): 52.80 h
f m (fraction of drug metabolism by individual CYP enzyme) (rCYP3A5): 3.5%
exposure (AUC0-t) with vs without coadministration [2]: similar
f m (fraction of drug metabolism by individual CYP enzyme) (rCYP2C8): 8.8%
f m (fraction of drug metabolism by individual CYP enzyme) (rCYP3A4): 73.1%
f m (fraction of drug metabolism by individual CYP enzyme) (rCYP2A6): 3.1%
Mean plasma concentration at three hours after oral administration [3, 7]: <LLOQ
Mean plasma concentration at three hours after oral administration [3, 8]: <LLOQ
concentration at 3 h ([3]; oral, 25 mg/kg, BDQ group (25 mg/kg), W4, LLOQ 5, 5, 15 ng/mL for BDQ, TBI-166, M2): 657 ± 142 ng/mL
concentration at 3 h ([3]; oral, 25 mg/kg, BDQ group (25 mg/kg), W8, LLOQ 5, 5, 15 ng/mL for BDQ, TBI-166, M2): 920 ± 126 ng/mL
concentration at 3 h ([3]; po, BDQ + TBI-166 group, W4): 647 ± 199 ng/mL
concentration at 3 h ([3]; po, BDQ + TBI-166 group, W8): 889 ± 171 ng/mL
f m (fraction of drug metabolism by individual CYP enzyme) (rCYP2C19): 5.7%
Kp (in vivo): 19.7

CC(C)/N=c1\cc2n(-c3ccc(Cl)cc3)c3ccccc3nc-2cc1Nc1ccc(Cl)cc1 [clofazimine]
CYP3A4/5 inhibitor strength (CYP3A4/5): moderate-to-strong

CNCC[C@@](O)(c1cccc2ccccc12)[C@H](c1ccccc1)c1cc2cc(Br)ccc2nc1OC [M2, N-desmethyl-bedaquiline]
higher cardiotoxicity by inducing phospholipidosis compared with BDQ (phospholipidosis): 50 times
AUC(0-t) ([4]; Lung, BDQ + TBI-166 group): 4940.02 ± 756.58 µg·h/g
tissue-to-plasma ratio (Kp) ([4]; Lung, BDQ + TBI-166 group): 64.79
AUC(0-t) ([4]; Lung, BDQ group): 4827.39 ± 818.42 µg·h/g
tissue-to-plasma ratio (Kp) ([4]; Lung, BDQ group): 41.72
AUC(0-t) ([4]; Spleen, BDQ + TBI-166 group): 6358.44 ± 1054.47 µg·h/g
tissue-to-plasma ratio (Kp) ([4]; Spleen, BDQ + TBI-166 group): 83.39
AUC(0-t) ([4]; Spleen, BDQ group): 4703.39 ± 1052.83 µg·h/g
tissue-to-plasma ratio (Kp) ([4]; Spleen, BDQ group): 40.65
exposure (AUC0-t) with vs without coadministration ([4]; lungs): similar
increase of exposure (AUC0-t) after coadministration of BDQ with TBI-166 ([4]; spleens): 1.5 fold
mean plasma concentration in BDQ + TBI-166 group as percent of BDQ group ([5]; 1 h post dose): 85%
mean plasma concentration ([5]; 1 h post dose (so in the source), BDQ group): 1,438 ng/mL
mean plasma concentration ([5]; 1 h post dose, BDQ + TBI-166 group): 1,235.36 ng/mL
mean plasma concentration in BDQ + TBI-166 group as percent of BDQ group ([5]; 3 h post dose): 75%
mean plasma concentration ([5]; 3 h post dose, BDQ + TBI-166 group): 1,084.84 ng/mL
mean plasma concentration ([5]; 3 h post dose, BDQ group): 1,438.31 ng/mL
area under the curve ratio (AUCR) ([5]; BDQ + TBI-166 group vs BDQ group): 0.66
AUC(0-t) ([5]; BDQ + TBI-166 group (Table S4)): 76250 ± 8100 ng·h/mL
AUC(0-t) ([5]; BDQ group (Table S4)): 115730 ± 25440 ng·h/mL
AUC(0-last) ([5]; plasma, BDQ + TBI-166 group): 76,310 ± 5,901 h·ng/mL
AUC(0-last) as percent of single-drug group ([5]; plasma, BDQ + TBI-166 group): 66%
AUC(0-∞) ([5]; plasma, BDQ + TBI-166 group): 89,814 h·ng/mL
C max ([5]; plasma, BDQ + TBI-166 group): 1,235.36 ± 22.74 ng/mL
MRT(0-t) ([5]; plasma, BDQ + TBI-166 group): 51.71 h
T max ([5]; plasma, BDQ + TBI-166 group): 1 h
t 1/2 ([5]; plasma, BDQ + TBI-166 group (BDQ 25 mg/kg + TBI-166 20 mg/kg, gavage QD 21 days)): 57.47 h
t 1/2 ([5]; plasma, BDQ group (BDQ 25 mg/kg alone, gavage QD 21 days)): 64.27 h
AUC(0-last) ([5]; plasma, BDQ group (BDQ alone)): 115,704 ± 19,589 h·ng/mL
AUC(0-∞) ([5]; plasma, BDQ group (BDQ alone)): 134,430 h·ng/mL
C max ([5]; plasma, BDQ group (BDQ alone)): 1,438.31 ± 127.21 ng/mL
MRT(0-t) ([5]; plasma, BDQ group (BDQ alone)): 56.46 h
T max ([5]; plasma, BDQ group (BDQ alone)): 3 h
AUC(0-last) as percent of single-drug group ([5]; plasma, BDQ group (reference)): 100%
decrease of AUC0-last after coadministration of BDQ with TBI-166 ([5]; plasma, vs BDQ group): 34%
plasma concentration after coadministration as percent of BDQ alone ([3]; 4 weeks): 87%
plasma concentration after coadministration as percent of BDQ alone ([3]; 8 weeks): 79%
Mean plasma concentration at three hours after oral administration ([3]; BDQ + TBI-166 group, W4): 970 ng/mL and 969.68 ± 206.81 ng/mL
Mean plasma concentration at three hours after oral administration ([3]; BDQ + TBI-166 group, W8): 948 ng/mL and 948.31 ± 60.21 ng/mL
Mean plasma concentration at three hours after oral administration [3, 7]: <LLOQ
Mean plasma concentration at three hours after oral administration [3, 8]: <LLOQ
Stability in mice plasma, RE ([6]; 4℃ for 24 h, 45 ng/mL): 5.42%
Stability in mice plasma, RE ([6]; 4℃ for 24 h, 225 ng/mL): 13.08%
Stability in mice plasma, RE ([6]; 4℃ for 24 h, 2250 ng/mL): 9.97%
Stability in mice plasma, RE ([6]; -40℃ for 7 d, 45 ng/mL): 15.73%
Stability in mice plasma, RE ([6]; -40℃ for 7 d, 225 ng/mL): 2.77%
Stability in mice plasma, RE ([6]; -40℃ for 7 d, 2250 ng/mL): 9.33%
Stability in mice plasma, RE ([6]; Freeze-thaw three cycles, 45 ng/mL): 12.58%
Stability in mice plasma, RE ([6]; Freeze-thaw three cycles, 225 ng/mL): 17.75%
Stability in mice plasma, RE ([6]; Freeze-thaw three cycles, 2250 ng/mL): 6.90%
Stability in mice plasma, RE ([6]; In auto-sample for 24 h, 45 ng/mL): 14.04%
Stability in mice plasma, RE ([6]; In auto-sample for 24 h, 225 ng/mL): 17.58%
Stability in mice plasma, RE ([6]; In auto-sample for 24 h, 2250 ng/mL): 4.83%
Stability in mice plasma, RE ([6]; Room temperature for 24 h, 45 ng/mL): 9.38%
Stability in mice plasma, RE ([6]; Room temperature for 24 h, 225 ng/mL): 17.30%
Stability in mice plasma, RE ([6]; Room temperature for 24 h, 2250 ng/mL): 4.03%
